SMILES strings stand for the structures. In brackets after ≈: the same amount, converted by molar mass.

The conditions of this data set: buffer; pH 7.4; 200.0 µM.
The compound `COc1ccccc1CN(C)CC(=O)Nc1cccc2ccccc12` yielded a kinetic solubility of 18.9 µg/mL (≈ 56.5 µM).

As to `O=C1NC(=O)N(CC2CCCO2)C(=O)/C1=C/c1cccs1` (configuration not stated), the kinetic solubility is > 46 µg/mL. For the compound `O=C(NCc1cccnc1)Nc1ccc2c(c1)OCO2`, the solubility (kinetic) was > 40.7 µg/mL. With `Cc1cc(=O)oc(C)c1C(=O)Nc1cccc(F)c1` the figure was > 39.2 µg/mL. In turn, `Cc1ccc2[nH]c(=O)c(CN(C(=O)c3cccc([N+](=O)[O-])c3)C(C)C)cc2c1` displayed a kinetic solubility of 2.6 µg/mL (≈ 6.85 µM). With `COc1cc(N2C(=O)CSC2=S)cc(OC)c1OC` the figure was 41 µg/mL (≈ 137 µM). With `COc1ccc(CNC(=O)Nc2ccccc2)cc1`, the kinetic solubility amounted to 13.5 µg/mL (≈ 52.7 µM). With `C[C@H](NC(N)=O)C(=O)OCC(=O)NCc1cccs1` the figure was > 42.8 µg/mL; with `Cc1ccc(C(=O)N2CCCc3ccccc32)c(F)c1F`, 17.2 µg/mL (≈ 59.9 µM); with `COc1ccc(/C=C2\SC(N)=NC2=O)cc1Br`, 5.3 µg/mL (≈ 16.9 µM). `Cc1ccc(C)c(NC(=O)C2C3C=CC(O3)C2C(=O)O)c1` (configuration not stated): the solubility (kinetic) is > 43.1 µg/mL. Then `COC(=O)c1sc(-c2ccccc2)cc1NC(C)=O`, with 1.7 µg/mL (≈ 6.17 µM); and `Cc1cccc(NS(=O)(=O)c2ccc3[nH]c(=O)[nH]c3c2)c1C`, with 5 µg/mL (≈ 15.8 µM). As for `Cc1cc(OC(=O)N(C)C)nc(-c2ccc(C)c(Cl)c2)n1`, the solubility (kinetic) turned out to be 22.5 µg/mL (≈ 73.6 µM).

As to `COCC(C)n1c(C)cc(C(=O)COC(=O)c2cccn2C)c1C` (configuration not stated), the solubility (kinetic) is > 49.9 µg/mL. Then `N#Cc1ccc(-c2ccc(OCC3CNC(=O)O3)cc2)cc1` (configuration not stated), with 11.3 µg/mL (≈ 38.4 µM); and `CC(C)CC(=O)Nc1sc2c(c1C(=O)O)CCCCC2`, with 42 µg/mL (≈ 142 µM).

In turn, `Cc1ccccc1NC(=O)/C(C#N)=C/c1ccc[nH]1` displayed a solubility (kinetic) of 2.9 µg/mL (≈ 11.5 µM). `S=c1[nH]c2cnccc2n1Cc1ccccc1` displayed a solubility (kinetic) of 5.7 µg/mL (≈ 23.6 µM). Compared with the last compound, the solubility kinetic is about 2-fold higher. With `CCCc1cc(C(=O)Nc2cccc(Cl)c2C)no1` the figure was 16.4 µg/mL (≈ 58.8 µM); with `Cc1ccc(CNC(=O)C2CC(=O)N(C3CCCCCC3)C2)cc1` (configuration not stated), 48.8 µg/mL (≈ 149 µM); with `O=C(/C=C/c1ccco1)Nc1cccnc1Cl`, 33 µg/mL (≈ 133 µM). With `O=C(OCc1cnc(Cl)s1)c1cccs1` the figure was 26.5 µg/mL (≈ 102 µM). With `CC(=O)OC1CCC2(/C=N/O)C(=CCC3C4CCC(=O)C4(C)CCC32)C1` (configuration not stated) the figure was > 53.9 µg/mL. As to `COc1ccc(NS(=O)(=O)c2cc(NC(=O)COc3ccccc3)ccc2N2CCOCC2)cc1`, the kinetic solubility was 3.1 µg/mL (≈ 6.23 µM). With `O=C(NC12CC3CC(CC(C3)C1)C2)c1cccc(OC(F)F)c1` the figure was 16.7 µg/mL (≈ 52 µM); with `CC(=O)Nc1ccc(C(=O)OCC(=O)Nc2ccc(S(=O)(=O)N3CCOCC3)cc2)cc1`, > 69.2 µg/mL; with `CCOc1ccc(-c2nc(N)ncc2-c2ccccc2OC)c(O)c1`, 1.3 µg/mL (≈ 3.85 µM). Then `N#Cc1c(-c2cccnc2)c2c([nH]c1=O)-c1ccccc1OC2`, with > 45.2 µg/mL. With `CC1(C)CC(=O)C2=C(C1)OC(N)=C(C#N)C2c1ccoc1` (configuration not stated), the kinetic solubility is > 42.6 µg/mL. Then `O=C(C1CCCCC1)N1CC(=O)N2CCc3ccccc3C2C1` (configuration not stated), with > 46.9 µg/mL; and `CCN1C(=O)c2ccc(C(=O)Nc3ccc4c(c3)OCO4)cc2C1=O`, with 0.5 µg/mL (≈ 1.48 µM); and `CC(C)C(NC(=O)c1ccc(F)cc1)C(=O)N1CCN(c2ccccn2)CC1` (configuration not stated), with 25.8 µg/mL (≈ 67.1 µM). With `Cc1cc(C(=O)NCc2ccc(F)cc2)c2ccccc2n1` the figure was 15.8 µg/mL (≈ 53.7 µM); with `COc1ccccc1N(CC(=O)Nc1ccccc1C(F)(F)F)S(=O)(=O)c1cccs1`, 9 µg/mL (≈ 19.1 µM); with `O=C(O)[C@H]1Cc2ccccc2CN1S(=O)(=O)c1ccc(F)cc1`, > 50.3 µg/mL.

In turn, `Cc1cccc(Nc2nc(C)nc3c2oc2ccccc23)c1.Cl` displayed a kinetic solubility of 1.1 µg/mL. Then `CCOc1ccc(N/C(C)=C/C(=O)c2ccc3c(c2)OCCO3)cc1`, with 0.8 µg/mL (≈ 2.36 µM). Then `CCC1(CC)Nc2ccccc2C(=O)N1c1ccc(OC)cc1`, with 16.5 µg/mL (≈ 53.2 µM); and `Cc1ccnc(SCC(=O)Nc2sccc2C#N)n1`, with 13.2 µg/mL (≈ 45.5 µM). Then `Cc1cccc(NS(=O)(=O)c2ccc3[nH]c(=O)cc(C(=O)O)c3c2)c1`, with 48.2 µg/mL (≈ 134 µM); and `Cc1ccc(NC(=O)CSc2nc(C)c(C)c(C)n2)cc1S(=O)(=O)N1CCOCC1`, with 4.2 µg/mL (≈ 9.32 µM); and `O=C(CCCNC(=O)c1ccc(Cl)cc1)Nc1cccc(F)c1`, with 5.6 µg/mL (≈ 16.7 µM). `COc1ccc(OC)c(NC(=O)Cc2cccs2)c1` gave a kinetic solubility of 30.4 µg/mL (≈ 110 µM). With `O=C(COC(=O)c1cccnc1Cl)Nc1ccc(S(=O)(=O)N2CCOCC2)cc1` the figure was 57.5 µg/mL (≈ 131 µM).

Consider `O=c1[nH]c(NCCO)c(N=Cc2ccccc2)c(=O)[nH]1`, for which the kinetic solubility was > 41.1 µg/mL.

Turning to `O=C(NCCc1ccc(F)cc1)Nc1ccc([N+](=O)[O-])cc1`, the solubility (kinetic) worked out at 4.9 µg/mL (≈ 16.2 µM). With `O=S(=O)(c1ccccc1)N1CCCC1c1cccs1` (configuration not stated), the kinetic solubility is > 44 µg/mL. Then `CCC(NC(=O)Nc1cc(C)on1)(C(F)(F)F)C(F)(F)F`, with 14.6 µg/mL (≈ 45.7 µM); and `COc1ccc(N(CC2CO2)S(=O)(=O)c2ccc(C)cc2)cc1` (configuration not stated), with 49 µg/mL (≈ 147 µM). In the case of `COc1ccc(S(=O)(=O)Nc2cc(Sc3ncn[nH]3)c(O)cc2C)cc1`, the solubility (kinetic) is > 58.9 µg/mL. Take `O=C(O)CN1C(=O)c2cccc3c(Br)ccc1c23`: the kinetic solubility was > 45.9 µg/mL. On to `Cc1ccc(NC(=O)CCC2CC(C)(C)OC2=O)cc1` (configuration not stated), for which the solubility (kinetic) was > 41.3 µg/mL. On to `O=S(=O)(Nc1ccc(-c2cn3ccccc3n2)cc1)c1ccccc1`, for which the solubility (kinetic) stood at 1.5 µg/mL (≈ 4.29 µM). Turning to `C/C(=N\O)C(C)(C)Nc1ccc(F)cc1`, the kinetic solubility was > 31.5 µg/mL.

Regarding `O=c1[nH]snc1N1CCOCC1`, the kinetic solubility is > 28.1 µg/mL. Then `NC(N)=S`, with > 11.4 µg/mL; and `CC(C)[C@H](NC(=O)c1ccc(C(C)(C)C)cc1)C(=O)N1CCN(Cc2ccc3c(c2)OCO3)CC1`, with 7.9 µg/mL (≈ 16.5 µM); and `OC(CNc1nc(C(F)(F)F)nc2ccccc12)c1ccccc1` (configuration not stated), with 6.3 µg/mL (≈ 18.9 µM). Compound `O=C(/C=C/c1ccccc1)Nc1cc(NC(=O)/C=C/c2ccccc2)cc(C(=O)O)c1` showed a kinetic solubility of 52.7 µg/mL (≈ 128 µM). This solubility kinetic is about 8.4-fold higher than that of the compound before. Take `NS(=O)(=O)c1ccc(OC(=O)CNC(=O)OCc2ccccc2)cc1`: the solubility (kinetic) amounted to 34.3 µg/mL (≈ 94.1 µM).

In turn, `CCOC(=O)C1=C(COC(=O)/C=C/c2ccco2)NC(=O)NC1C` (configuration not stated) returned a kinetic solubility of 23.1 µg/mL (≈ 69.1 µM). With `Cc1ccccc1OCCNC(=O)c1ccco1`, the kinetic solubility is > 36.8 µg/mL. With `COc1cccc(-c2cc(C(=O)NCc3cccs3)no2)c1` the figure was < 0.3 µg/mL. As for `Cc1ccc(S(=O)(=O)NCCC2=CCCCC2)cc1C(N)=O`, the solubility (kinetic) was > 48.4 µg/mL. With `Cc1ncc([N+](=O)[O-])n1CC(=O)Nc1ccccc1F` the figure was > 41.7 µg/mL.

Turning to `CSc1ccccc1NC(=O)C1=COCCO1`, the solubility (kinetic) was > 37.7 µg/mL.

On to `NC(=O)c1ccc(NC(=O)COC(=O)c2cc3ccccc3cc2O)cc1`, for which the kinetic solubility was 10.1 µg/mL (≈ 27.7 µM). Turning to `Cc1ccnc(N2C3CCC2CC(O)(c2ccccc2)C3)n1` (configuration not stated), the kinetic solubility is > 44.3 µg/mL.

Compound `Cc1sc2nc[nH]c(=O)c2c1-c1ccc(F)cc1` registered a solubility (kinetic) of 4.8 µg/mL (≈ 18.4 µM). With `COc1ccc(N2CCN(C(=O)CN3C(=O)NC4(CCCCC4C)C3=O)CC2)cc1` (configuration not stated) the figure was > 62.2 µg/mL; with `CC1CCC(C(C)C)C(=O)/C1=C/c1ccc(N)cc1` (configuration not stated), 3.3 µg/mL (≈ 12.8 µM). With `COc1ccc(Nc2nc(N3CCOCC3)nc(N3CCOCC3)n2)cc1` the figure was 1.4 µg/mL (≈ 3.76 µM); with `Oc1ccc(Cl)cc1C=Nc1ccc2c3c(cccc13)CC2`, > 46.2 µg/mL; with `COc1ccc(C(=O)NCCNC(=O)c2cnccn2)cc1OC`, > 49.6 µg/mL.

Consider `COC(=O)c1cnc(Nc2cccc(C(F)(F)F)c2)c([N+](=O)[O-])c1`, for which the kinetic solubility is < 0.2 µg/mL. On to `CC(=O)Nc1nc2c(C)c(Cl)ccc2s1`, for which the solubility (kinetic) is < 0.3 µg/mL. `NS(=O)(=O)c1ccc(NC(=O)c2ccc(OCC3CCCO3)cc2)cc1` (configuration not stated) came in with a solubility (kinetic) of 13 µg/mL (≈ 34.5 µM). The compound `COc1cc2c(cc1OC)CN(c1ccc(C(N)=O)cc1[N+](=O)[O-])CC2` showed a kinetic solubility of 6.4 µg/mL (≈ 17.9 µM). With `c1ccc(CSc2nc3ncccn3n2)cc1` the figure was > 36.3 µg/mL; with `Fc1ccc(Br)cc1SCCc1ccncc1`, 19.7 µg/mL (≈ 63.1 µM). For the compound `COC(=O)COc1cccc(NC(=O)c2cc(OC)cc(OC)c2)c1`, the solubility (kinetic) came to 49.6 µg/mL (≈ 144 µM). Against the preceding compound, the solubility kinetic is about 2.5-fold higher. With `COc1ccc(NC(=O)CNc2ccc(C#N)cc2)cc1` the figure was > 42.2 µg/mL; with `N#Cc1ccc(C(=O)OCC(=O)N2CCN(C(=O)c3ccco3)CC2)cc1`, > 55.1 µg/mL; with `CCCNC(=O)C1CC(=O)N(c2ccc(OCC)cc2)C1` (configuration not stated), > 43.6 µg/mL. Then `Cc1cc(Oc2ccc(N)cn2)cc(C)c1Cl`, with 27.6 µg/mL (≈ 111 µM); and `CNC(=S)Nc1cccc(S(=O)(=O)NCc2ccco2)c1`, with > 48.8 µg/mL; and `CC(C(=O)Nc1ccccc1)N1CCN(C(=O)c2ccco2)CC1` (configuration not stated), with > 49.1 µg/mL.

For `COc1ccc(NC(=O)Nc2c[nH]c(=O)[nH]c2=O)cc1`, the kinetic solubility stood at 10 µg/mL (≈ 36.2 µM). Then `O=C1CC(N(O)c2ccccc2)C(=O)N1c1ccc(Cl)c(Cl)c1` (configuration not stated), with 9.8 µg/mL (≈ 27.9 µM); and `O=C(Nc1ccncc1)c1sc2ccccc2c1Cl`, with 0.8 µg/mL (≈ 2.77 µM). On to `Cn1cc([N+](=O)[O-])c(C(=O)N/N=C/c2ccncc2)n1`, for which the solubility (kinetic) is > 41.1 µg/mL.

For `Cc1c([N+](=O)[O-])c(C(=O)NC2CCCCC2)nn1C`, the kinetic solubility was > 39.9 µg/mL. Then `Cn1cccc1C(=O)OCC(=O)N1CCc2ccccc21`, with 2.8 µg/mL (≈ 9.85 µM); and `CCOC(=O)C1CCN(C(=O)CSc2nc(N)cc(=O)[nH]2)CC1`, with > 51.1 µg/mL. Then `Cn1c(O)c(/C=C2\C=c3ccccc3=NC2=O)c(=O)n(C)c1=O`, with > 46.7 µg/mL; and `COc1ccc(CC2CC(=O)N(c3ccc(C)cc3)C2=O)cc1` (configuration not stated), with 4.4 µg/mL (≈ 14.2 µM). For `Cc1ccc(C(=O)NCCNC(=O)c2ccc(C)nc2)cc1`, the solubility (kinetic) was > 44.6 µg/mL. In the case of `CCC(C)C(=O)Nc1ccc(S(=O)(=O)Nc2nccs2)cc1` (configuration not stated), the solubility (kinetic) is > 50.9 µg/mL.

`Cc1ccc2nc(-c3cc(-c4ccccc4)no3)cn2c1` returned a kinetic solubility of 0.3 µg/mL (≈ 1.09 µM).

In turn, `CC(NCc1ccccc1O)C12CC3CC(CC(C3)C1)C2.Cl` (configuration not stated) displayed a solubility (kinetic) of 41.9 µg/mL. Turning to `COc1cc(OC)nc(Oc2ccccc2/C=N/O)n1`, the kinetic solubility is > 41.3 µg/mL.

The kinetic solubility is the concentration staying in solution when a stock, usually in DMSO, is diluted into the medium.

The values above are taken from PubChem BioAssay AID1996.
